# Values of other authors as cited in patent publication US4760029A, “Assay for D-1 antagonistic activity of neuroleptic drugs” (Schering Corporation, priority 1984, dated 1988).
# Tests used:
# [1] = tested on: dopamine stimulated adenylate cyclase; conditions: J. Pharmacol. Exp. Ther., 226, 462 (1983)
# [2] = J. Pharmacol. Exp. Ther., 226, 462 (1983)
# D-2 sites = conditions: J. Pharmacol. Exp. Ther., 226, 462 (1983)
# D-1 sites = conditions: Eur. J. Pharmacol. 91, 153(1983)
structure (smiles),measurement,setting,value
"CN1CCc2cc(Cl)c(O)cc2[C@@H](c2ccccc2)C1 [Compound, R-(+)-8-chloro-2,3,4,5-tetrahydro-3-methyl-5-phenyl-1H-3-benzazepin-7-ol]",blockade of dopamine stimulated adenylate cyclase,[1],potent blockade
same,prolactinemia,[2],no prolactinemia
same,displacement of ^3 H-spiperone binding,D-2 sites,weak displacement
same,ability to inhibit ^3 H-cis-(Z)-piflutixol binding,D-1 sites,very potent
